Among the data in PubChem BioAssay (NCI) are GI50 and TGI values, retold here.

“And” between values parts separate entries of the source, which are not always exact repeats. Identical values can stand only once.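 Briefly, cells in 96-well plates were exposed to five compound concentrations for 48 h, and endpoints were estimated by linear interpolation. GI50: concentration for 50% inhibition of growth. The concentration for full growth arrest is given as TGI.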

Holding throughout (assay): NCI tumour cell line growth inhibition, 48 h
Test [1] relates to HT29 colon.
The test system of test [2] is MDA-MB-231 breast.
For test [3], the system named is SW-620 colon.
Test [4] deals with HCT-15 colon.
Test [5] concerns HS 578T breast.
The test system of test [6] is NCI-H522 lung.
For test [7], the system named is T-47D breast.
Test [8] deals with MOLT-4 leukemia.
In test [9] the test system is LOX IMVI melanoma.
For test [10], the system named is PC-3 prostate.

Consider `CN(CC(=O)Nc1nc2ccccc2[nH]1)S(=O)(=O)c1ccc(Cl)cc1`, for which the GI50 was more than 100 µM in test [1]; more than 100 µM in [2]; more than 100 µM in test [3]; more than 100 µM in test [4]; 65 µM in test [5]; more than 100 µM in [6]. Besides, the GI50 in test [7], in test [8] and in [9] was more than 100 µM throughout. Besides, the TGI in [1], in [2], in [3], in [4], in test [5] and in test [6] was more than 100 µM in each case. Further, the TGI in [7], in [8] and in test [9] was more than 100 µM in each case.
Turning to `N#CC1(C#N)C2C=CC(c3coc4cccc2c34)C1(C#N)C#N` (configuration not stated), the TGI in test [1] is 41.6 µM; in [3], 3.32 µM; in [4], 19.2 µM; in [6], 3.4 µM; in test [8], 6.35 µM; in test [9], 28.7 µM.
In the case of `O=C(CCn1[nH]c(=O)c(Cl)c(Cl)c1=O)NNC(=O)C[n+]1ccccc1`, the TGI in test [1], in [3], in [4], in [6], in test [8] and in test [9] was more than 100 µM in each case.
Regarding `CCOC(=O)c1cnc2c(ccc3ncccc32)c1NCCCN(CC)CC`, the TGI is more than 100 µM in test [1]; more than 100 µM in test [3]; more than 100 µM in [4]; more than 100 µM in [6]; 72.2 µM in test [8]; 33.6 µM in test [9].
For the compound `CCOC(=O)C(CC/C=C\c1ccccc1)N1CCC[C@H]1C(=O)OC` (some centres not stated), the TGI in [1], in test [3], in test [6], in test [8] and in test [9] was more than 100 µM in each case.
For the compound `Nc1ccc(-c2cccs2)cc1NC(=O)c1ccc(CCCC(=O)Nc2ccc(C3CC3N)cc2)cc1` (configuration not stated), the GI50 in [4] was 5.99 µM; in test [5], 7.93 µM; in [7] it was 1.75 µM. Besides, the values for the TGI in test [4], in test [5] and in [7] were more than 100 µM, more than 100 µM and 4.82 µM, respectively.
For `CC(=O)O[C@@]1(C)[C@@H](C)C(=O)O[C@@H]2CCN3CC=C(COC(=O)[C@]1(C)O)[C@H]23`, the TGI in test [1], in test [3], in [4], in test [6] and in test [8] was more than 100 µM throughout.
As to `CCn1c(-c2nonc2N)nc2c(C#CC(C)(C)O)ncc(OC[C@H]3CCCNC3)c21`, the GI50 in [1] is 17.5 µM; in [2], 17.8 µM; in test [3] it was 11.1 µM; in [4], 20.3 µM; in [5], 2.58 µM; in test [6], 12.2 µM. Further, the GI50 in [8] is 0.23 µM; in test [9], 17.8 µM; in [10], 10.4 µM. Moreover, the TGI in test [1] is 51.5 µM; in test [2], 55.6 µM; in test [3], more than 100 µM; in test [4], more than 100 µM; in [5], 59.5 µM; in [6], 33.2 µM. For the same compound, the TGI turned out to be 31.5 µM in [8], 45.6 µM in test [9] and 70.8 µM in test [10].
For `CC(C)(C)c1ccc(OCCOCCOc2ccc(C(C)(C)C)cc2S(=O)(=O)Nc2ccc([N+](=O)[O-])cc2)c(S(=O)(=O)Nc2ccc([N+](=O)[O-])cc2)c1`, the TGI in test [1] was more than 100 µM; in [3], more than 100 µM; in test [4], more than 100 µM; in test [8], 43.9 µM; in test [9], more than 100 µM.
As for `C/C(O)=C(\C#N)C(=O)Nc1ccc(C(F)(F)F)cc1`, the GI50 in test [1] is 44.6 µM; in [2], 26.3 µM; in test [3], 36.4 µM; in test [4], 5.96 µM; in test [5], 39.1 µM; in test [7], 92 µM. Further, the GI50 in test [8] is 67.9 µM; in test [9], 8.21 µM; in test [10], 7.97 µM. Also, the TGI in test [1], in test [2], in [3], in test [4], in test [5] and in test [7] was more than 100 µM throughout. The TGI in [8], in [9] and in test [10] was more than 100 µM in each case.
In the case of `CC1=C(O)/C(=C/C(C)CCC/C(C)=C/C=C/C(C)CCCc2ccoc2)OC1=O` (configuration not stated), the TGI in test [1], in test [3], in [6] and in test [9] was more than 100 µM each time.
For `Cc1cccc2c1CCC21OC(=O)c2c1ccc1ccccc21` (configuration not stated), the TGI in test [1] was more than 100 µM; in test [3] it was more than 100 µM; in test [4] it was more than 100 µM; in test [6] it was more than 100 µM; in test [8], 79.8 µM; in test [9], more than 100 µM.
On to `COC(=O)C12OCC34C(CC5C(C)C6=CC(=O)OC6=CC5(C)C3C(O)C1O)OC(=O)C(O)C24` (configuration not stated), for which the GI50 is 1.68 µM in test [1]; 0.282 µM in test [3]; 0.458 µM in [4]; 0.0501 µM in [6]; 0.0314 µM in test [8]; 0.0542 µM in [9]. The TGI in test [1] is 0.674 µM; in [3], 9.4 µM; in test [4] it was 12.9 µM; in test [8], 0.375 µM and 1.27 µM; in test [9], 0.288 µM and 1.42 µM.
Regarding `O=C1C=CC(=O)N1c1cccc(N2C(=O)C=CC2=O)c1`, the GI50 in test [1] is 2.3 µM; in [2], 1.97 µM; in test [3], 1.99 µM; in test [4], 1.91 µM; in [5] it was 2.17 µM; in [6], 1.62 µM. Also, the results for the GI50 in test [8], in test [9] and in test [10] were 2.74 µM, 2.02 µM and 13.4 µM, respectively. Also, the TGI in test [1] came out at 4.94 µM; in test [2], 4.53 µM; in [3], 3.87 µM; in [4] it was 3.93 µM; in test [5] it was 5.73 µM; in [6], 3.04 µM. Also, the TGI in test [8] is 7.73 µM; in test [9] it was 4.02 µM; in test [10] it was 31.6 µM.
